Measured values: patent US9302999B2, “Substituted triazoles as herbicides” (E. I. DU PONT DE NEMOURS AND COMPANY, priority 2012, dated 2016)

What was measured:
[1] = test system: Waterhemp; assay: Test C postemergence: waterhemp; format: in vivo
Source text: At the same time, plants selected from these crop and weed species and also barley (winter barley, Hordeum vulgare), canarygrass (Phalaris minor), chickweed (common chickweed, Stellaria media) windgrass (Apera spica-venti) and deadnettle (henbit deadnettle, Lamium amplexicaule) were planted in pots containing Redi-Earth® planting medium (Scotts Company, 14111 Scottslawn Road, Marysville, Ohio 43041) comprising spaghnum peat moss, vermiculite, wetting agent and starter nutrients and treated with postemergence applications of test chemicals formulated in the same manner. Plants ranged in height from 2 to 18 cm (1- to 4-leaf stage) for postemergence treatments.
Treated plants and controls were maintained in a greenhouse for 13 to 15 days, after which time all species were compared to controls and visually evaluated. Plant response ratings, summarized in Table C, are based on a scale of 0 to 100 where 0 is no effect and 100 is complete control. A dash (-) response means no test result.

[2] = test system: sedge, umbrella (small-flower umbrella sedge Cyperus difformis); assay: Test B flooded paddy: sedge, umbrella; format: in vivo; conditions: Flood; 250 g ai/ha; applied to paddy water at 2-leaf stage; visually evaluated after 13 to 15 days
How it was run: (§1)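 Visual ratings on a 0–100 scale, where 0 means no effect and 100 means complete control, were assigned by comparison with controls 13 to 15 days after treatment. Compounds went into paddy water over 2-leaf plants flooded to 3 cm.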

[3] = test system: corn (Zea mays); assay: Test C pre-/postemergence: corn; format: in vivo
How it was run: (§2)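 Preemergence on seeds in loam/sand, postemergence on 2–18 cm (1–4-leaf) plants in peat-based medium; compounds in non-phytotoxic solvent with surfactant. After 13–15 days in greenhouse, visual rating versus controls, 0 (no effect) to 100 (complete control).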

[4] = test system: rice (Oryza sativa); assay: Test B flooded paddy: rice; format: in vivo; conditions: Flood; 250 g ai/ha; applied to paddy water at 2-leaf stage; visually evaluated after 13 to 15 days
How it was run: as §1

[5] = test system: wild oat (Avena fatua); assay: Test C pre-/postemergence: wild oat; format: in vivo; conditions: Postemergence
How it was run: as §2

[6] = test system: Oilseed Rape; assay: Test C preemergence: oilseed rape; format: in vivo, Brassica napus; conditions: 125 g ai/ha, scale 0 to 100, 0 no effect, 100 complete control
[7] = test system: soybean (Glycine max); assay: Test C pre-/postemergence: soybean; format: in vivo
How it was run: as §2

[8] = test system: foxtail, giant (giant foxtail, Setaria faberii); assay: Test C pre-/postemergence: foxtail, giant; format: in vivo
How it was run: as §2

[9] = test system: Barnyardgrass; assay: Test C postemergence: barnyardgrass; format: in vivo, Echinochloa crus-galli; conditions: 125 g ai/ha, scale 0 to 100, 0 no effect, 100 complete control
[10] = test system: velvetleaf (Abutilon theophrasti); assay: Test C pre-/postemergence: velvetleaf; format: in vivo
How it was run: as §2

[11] = test system: lambsquarters (Chenopodium album); assay: Test C pre-/postemergence: lambsquarters; format: in vivo
How it was run: as §2

[12] = test system: ducksalad (Heteranthera limosa); assay: Test B flooded paddy: ducksalad; format: in vivo; conditions: Flood; 250 g ai/ha; applied to paddy water at 2-leaf stage; visually evaluated after 13 to 15 days
How it was run: as §1

[13] = 31 g ai/ha, scale 0 to 100 (0 no effect, 100 complete control)
[14] = 62 g ai/ha, scale 0 to 100 (0 no effect, 100 complete control)
[15] = Postemergence, 31 g ai/ha, scale 0 to 100 (0 no effect, 100 complete control)
[16] = Postemergence, 62 g ai/ha, scale 0 to 100 (0 no effect, 100 complete control)
[17] = Postemergence, 250 g ai/ha, scale 0 to 100
[18] = Preemergence, 31 g ai/ha, scale of 0 to 100, 0 is no effect, 100 is complete control
[19] = Preemergence, 62 g ai/ha, scale of 0 to 100, 0 is no effect, 100 is complete control
[20] = Preemergence, 125 g ai/ha, scale 0 to 100, 0 no effect, 100 complete control
[21] = Preemergence, 250 g ai/ha, scale 0 to 100, 0 no effect, 100 complete control
[22] = 125 g ai/ha, scale 0 to 100, 0 no effect, 100 complete control
[23] = Postemergence, 125 g ai/ha, scale 0 to 100, 0 no effect, 100 complete control

CCc1nn(-c2ccc(F)cc2)nc1Cc1ccnc(C(F)(F)F)c1 [Compound 154]
Plant response rating, Waterhemp [1, 13]: 90 | Plant response rating, Waterhemp [1, 14]: 98 | Plant response rating, Waterhemp ([1]; 250 g ai/ha, scale 0 to 100): 98 | Plant response rating, Sedge, Umbrella (0 to 100 scale, 0 is no effect, 100 is complete control) [2]: 80 | Plant response rating, Corn [3, 15]: 20 | Plant response rating, Corn [3, 16]: 20 | Plant response rating, Corn [3, 17]: 20 | Plant response rating, Corn [3, 18]: 0 | Plant response rating, Corn [3, 19]: 5 | Plant response rating, Corn [3, 20]: 10 | Plant response rating, Corn [3, 21]: 15 | Plant response rating, Rice (0 to 100 scale, 0 is no effect, 100 is complete control) [4]: 45 | Plant response rating, Oat, Wild [5, 13]: 15 | Plant response rating, Oat, Wild [5, 14]: 35 | Plant response rating, Oat, Wild [5, 22]: 65 | Plant response rating, Oat, Wild ([5]; 250 g ai/ha, scale 0 to 100): 65 | Plant response rating, Oilseed Rape [6]: 90 | Plant response rating, Soybean [7, 15]: 45 | Plant response rating, Soybean [7, 16]: 60 | Plant response rating, Soybean [7, 23]: 65 | Plant response rating, Soybean [7, 17]: 75 | Plant response rating, Soybean [7, 18]: 0 | Plant response rating, Soybean [7, 19]: 0 | Plant response rating, Soybean [7, 20]: 15 | Plant response rating, Soybean [7, 21]: 15 | Plant response rating, Foxtail, Giant [8, 15]: 20 | Plant response rating, Foxtail, Giant [8, 16]: 20 | Plant response rating, Foxtail, Giant [8, 23]: 55 | Plant response rating, Foxtail, Giant [8, 17]: 75 | Plant response rating, Foxtail, Giant [8, 18]: 100 | Plant response rating, Foxtail, Giant [8, 19]: 100 | Plant response rating, Foxtail, Giant [8, 20]: 100 | Plant response rating, Foxtail, Giant [8, 21]: 100 | Plant response rating, Barnyardgrass [9]: 25 | Plant response rating, Velvetleaf [10, 15]: 35 | Plant response rating, Velvetleaf [10, 16]: 45 | Plant response rating, Velvetleaf [10, 23]: 55 | Plant response rating, Velvetleaf [10, 17]: 65 | Plant response rating, Velvetleaf [10, 18]: 5 | Plant response rating, Velvetleaf [10, 19]: 45 | Plant response rating, Velvetleaf [10, 20]: 90 | Plant response rating, Velvetleaf [10, 21]: 100 | Plant response rating, Lambsquarters [11, 15]: 75 | Plant response rating, Lambsquarters [11, 16]: 98 | Plant response rating, Lambsquarters [11, 23]: 98 | Plant response rating, Lambsquarters [11, 17]: 98 | Plant response rating, Lambsquarters [11, 18]: 100 | Plant response rating, Lambsquarters [11, 19]: 100 | Plant response rating, Lambsquarters [11, 20]: 100 | Plant response rating, Lambsquarters [11, 21]: 100 | Plant response rating, Ducksalad (0 to 100 scale, 0 is no effect, 100 is complete control) [12]: 80

CCc1nn(-c2ccc(C(F)(F)F)cc2)nc1Cc1ccnc(C(F)(F)F)c1 [Compound 155]
Plant response rating, Waterhemp [1, 13]: 98 | Plant response rating, Waterhemp [1, 14]: 98 | Plant response rating, Waterhemp ([1]; 250 g ai/ha, scale 0 to 100): 98 | Plant response rating, Sedge, Umbrella (0 to 100 scale, 0 is no effect, 100 is complete control) [2]: 80 | Plant response rating, Corn [3, 15]: 25 | Plant response rating, Corn [3, 16]: 25 | Plant response rating, Corn [3, 23]: 45 | Plant response rating, Corn [3, 17]: 45 | Plant response rating, Corn [3, 18]: 5 | Plant response rating, Corn [3, 19]: 5 | Plant response rating, Corn [3, 20]: 10 | Plant response rating, Corn [3, 21]: 45 | Plant response rating, Rice (0 to 100 scale, 0 is no effect, 100 is complete control) [4]: 50 | Plant response rating, Oat, Wild [5, 13]: 40 | Plant response rating, Oat, Wild [5, 14]: 45 | Plant response rating, Oat, Wild [5, 22]: 75 | Plant response rating, Oat, Wild ([5]; 250 g ai/ha, scale 0 to 100): 90 | Plant response rating, Oilseed Rape [6]: 90 | Plant response rating, Soybean [7, 15]: 50 | Plant response rating, Soybean [7, 16]: 75 | Plant response rating, Soybean [7, 23]: 80 | Plant response rating, Soybean [7, 17]: 80 | Plant response rating, Soybean [7, 18]: 0 | Plant response rating, Soybean [7, 19]: 35 | Plant response rating, Soybean [7, 20]: 35 | Plant response rating, Soybean [7, 21]: 40 | Plant response rating, Foxtail, Giant [8, 15]: 15 | Plant response rating, Foxtail, Giant [8, 16]: 45 | Plant response rating, Foxtail, Giant [8, 23]: 75 | Plant response rating, Foxtail, Giant [8, 17]: 100 | Plant response rating, Foxtail, Giant [8, 18]: 100 | Plant response rating, Foxtail, Giant [8, 19]: 100 | Plant response rating, Foxtail, Giant [8, 20]: 100 | Plant response rating, Foxtail, Giant [8, 21]: 100 | Plant response rating, Barnyardgrass [9]: 55 | Plant response rating, Velvetleaf [10, 15]: 50 | Plant response rating, Velvetleaf [10, 16]: 60 | Plant response rating, Velvetleaf [10, 23]: 75 | Plant response rating, Velvetleaf [10, 17]: 80 | Plant response rating, Velvetleaf [10, 18]: 30 | Plant response rating, Velvetleaf [10, 19]: 80 | Plant response rating, Velvetleaf [10, 20]: 85 | Plant response rating, Velvetleaf [10, 21]: 100 | Plant response rating, Lambsquarters [11, 15]: 80 | Plant response rating, Lambsquarters [11, 16]: 95 | Plant response rating, Lambsquarters [11, 23]: 98 | Plant response rating, Lambsquarters [11, 17]: 98 | Plant response rating, Lambsquarters [11, 18]: 90 | Plant response rating, Lambsquarters [11, 19]: 100 | Plant response rating, Lambsquarters [11, 20]: 100 | Plant response rating, Lambsquarters [11, 21]: 100 | Plant response rating, Ducksalad (0 to 100 scale, 0 is no effect, 100 is complete control) [12]: 80

Cc1nn(-c2ccc(F)c(C(F)(F)F)c2)nc1Cc1ccnc(C(F)(F)F)c1 [Compound 156]
Plant response rating, Waterhemp [1, 13]: 98 | Plant response rating, Waterhemp [1, 14]: 98 | Plant response rating, Waterhemp ([1]; 250 g ai/ha, scale 0 to 100): 98 | Plant response rating, Sedge, Umbrella (0 to 100 scale, 0 is no effect, 100 is complete control) [2]: 85 | Plant response rating, Corn [3, 16]: 15 | Plant response rating, Corn [3, 23]: 25 | Plant response rating, Corn [3, 17]: 30 | Plant response rating, Corn [3, 18]: 5 | Plant response rating, Corn [3, 19]: 5 | Plant response rating, Corn [3, 20]: 10 | Plant response rating, Corn [3, 21]: 30 | Plant response rating, Rice (0 to 100 scale, 0 is no effect, 100 is complete control) [4]: 50 | Plant response rating, Oat, Wild [5, 13]: 35 | Plant response rating, Oat, Wild [5, 14]: 50 | Plant response rating, Oat, Wild [5, 22]: 50 | Plant response rating, Oat, Wild ([5]; 250 g ai/ha, scale 0 to 100): 70 | Plant response rating, Oilseed Rape [6]: 90 | Plant response rating, Soybean [7, 15]: 55 | Plant response rating, Soybean [7, 16]: 80 | Plant response rating, Soybean [7, 23]: 95 | Plant response rating, Soybean [7, 17]: 95 | Plant response rating, Soybean [7, 18]: 5 | Plant response rating, Soybean [7, 19]: 10 | Plant response rating, Soybean [7, 20]: 25 | Plant response rating, Soybean [7, 21]: 25 | Plant response rating, Foxtail, Giant [8, 15]: 10 | Plant response rating, Foxtail, Giant [8, 16]: 15 | Plant response rating, Foxtail, Giant [8, 23]: 25 | Plant response rating, Foxtail, Giant [8, 17]: 50 | Plant response rating, Foxtail, Giant [8, 18]: 90 | Plant response rating, Foxtail, Giant [8, 19]: 90 | Plant response rating, Foxtail, Giant [8, 20]: 90 | Plant response rating, Foxtail, Giant [8, 21]: 95 | Plant response rating, Barnyardgrass [9]: 40 | Plant response rating, Velvetleaf [10, 15]: 45 | Plant response rating, Velvetleaf [10, 16]: 50 | Plant response rating, Velvetleaf [10, 23]: 60 | Plant response rating, Velvetleaf [10, 17]: 80 | Plant response rating, Velvetleaf [10, 18]: 5 | Plant response rating, Velvetleaf [10, 19]: 40 | Plant response rating, Velvetleaf [10, 20]: 40 | Plant response rating, Velvetleaf [10, 21]: 100 | Plant response rating, Lambsquarters [11, 15]: 98 | Plant response rating, Lambsquarters [11, 16]: 98 | Plant response rating, Lambsquarters [11, 23]: 98 | Plant response rating, Lambsquarters [11, 17]: 98 | Plant response rating, Lambsquarters [11, 18]: 100 | Plant response rating, Lambsquarters [11, 19]: 100 | Plant response rating, Lambsquarters [11, 20]: 100 | Plant response rating, Lambsquarters [11, 21]: 100 | Plant response rating, Ducksalad (0 to 100 scale, 0 is no effect, 100 is complete control) [12]: 90
